Experimental data published in patent US20040110265A1, “Recovery of enzyme activity from enveloped viruses” (priority 2001, published 2004).

Legend:
human plasma polymerase = test: Resurrection of plasma polymerase activity after treatment with cysteine-modifying agents; format: biochemical
Description: A set of human plasma samples (60% plasma in water) was first incubated with 3 mM of indicated cysteine-modifying substance or water (as control) at room temperature for 1 hour. Serial dilutions of five potentially reactivating substances were then added and the samples were incubated for another hour. Each sample was finally diluted 1:20 and residual RT activity was determined with Cavidi® HS kit Lenti RT. The total reduction in substance concentration between sample incubation and RT assay was 200 times. The RT activities recovered were recalculated into percent of the activity of a control consisting of plasma incubated in absence of additions during both incubation steps.

human plasma RT = test: Selective destruction of endogenous RT activity in plasma, protocol I; format: biochemical; conditions: EDTA plasma with disrupted lymphocytes, 1 hour at room temperature
Description: EDTA plasma with disrupted lymphocytes from a healthy blood donor and FIV diluted in inactivated foetal calf serum (totally devoid of plasma RT activity) were incubated for 1 hour at room temperature with indicated concentration of: A) 5,5′-dithiobis-(2-nitrobensoic acid), B) thimerosal. The samples were separated according to “Protocol for determination of retroviral RT from material which contains RT blocking antibodies”. The RT activities recovered were determined with an RT assay (Cavidi HS-kit Lenti RT).

[1] = target: Recombinant wild type HIV 1 RT (Human immunodeficiency virus type 1 group M subtype B, UniProt P04585); conditions: in foetal calf serum, 60 minutes at 22° C.
Description: (§1) Recombinant wild type HIV 1 RT (▪), Recombinant RT from a Nevirapine resistant HIV 1 mutant (Y181C) (⋄), Jaagsiekte virus (JSV) RT from a sheep lung cancer (▾), […] (FIV) RT (∘), Bovine Leukaemia virus (BLV) RT (♦) and Porcine Endogenous Retrovirus (PERV) RT (●)derived from cell culture were dilute in heat inactivated foetal calf serum. The different virus enzyme preparations and an EDTA plasma sample from a healthy blood donor (□) were incubated with indicated thimerosal concentration at room temperature (22° C.) for 60 minutes. All the samples were diluted 100 fold in an RT assay compatible buffer and the residual RT activity in each sample was then determined. Three RT assays, each adapted to the type of RT measured were used: HIV 1, JSV, and FIV RTs were measured with Cavidi® HS kit Lenti RT BLV RT with Cavidi® HS kit HTLV RT and PERV and human plasma RT with Cavidi® HS kit Mn^2+ RT.

FIV RT = conditions: in foetal calf serum, 60 minutes at 22° C.
Description: as §1

[2] = target: Recombinant RT from a Nevirapine resistant HIV 1 mutant (Y181C) (Human immunodeficiency virus type 1 group M subtype B, UniProt P04585, Y768C); conditions: in foetal calf serum, 60 minutes at 22° C.
Description: as §1

[3] = target: Jaagsiekte virus (JSV) RT (Sheep pulmonary adenomatosis virus, UniProt P31623); conditions: in foetal calf serum, 60 minutes at 22° C.
Description: as §1

Jaagsiekte virus (JSV) RT, sequence (P31623 866-1446 limits assumed): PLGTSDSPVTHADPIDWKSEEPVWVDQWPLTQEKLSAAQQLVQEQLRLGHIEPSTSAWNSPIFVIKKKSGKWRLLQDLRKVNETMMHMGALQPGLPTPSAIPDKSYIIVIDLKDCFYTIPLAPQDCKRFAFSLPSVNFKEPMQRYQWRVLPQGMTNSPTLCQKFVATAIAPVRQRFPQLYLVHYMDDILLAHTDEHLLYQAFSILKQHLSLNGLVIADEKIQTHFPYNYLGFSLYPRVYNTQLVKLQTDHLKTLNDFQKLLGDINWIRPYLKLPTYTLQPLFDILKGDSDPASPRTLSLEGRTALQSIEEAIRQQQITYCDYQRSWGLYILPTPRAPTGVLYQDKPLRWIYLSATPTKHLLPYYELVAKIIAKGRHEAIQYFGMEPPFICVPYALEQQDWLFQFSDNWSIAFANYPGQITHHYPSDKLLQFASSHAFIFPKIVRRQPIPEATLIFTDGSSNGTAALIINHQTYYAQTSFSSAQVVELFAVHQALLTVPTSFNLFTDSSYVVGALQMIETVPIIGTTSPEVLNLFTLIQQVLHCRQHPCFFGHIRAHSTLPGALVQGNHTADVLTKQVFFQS

In the case of C[CH2][Hg][S]c1ccccc1C(=O)[O-].[Na+] [Thimerosal], the “Conditions required to reactivate polymerase activity treated with the agent” value (human plasma polymerase; 3 mM agent, then reactivating substances) is reported as “quite easily reactivated”, the “Polymerase activity after second incubation with DTT (% of control)” value (shortened to “Polymerase activity … with DTT (% of control)”) (human plasma polymerase; 3 mM destroying agent first, 1.1 mM DTT) is reported as 84% and the “Polymerase activity after second incubation with MSA (% of control)” value (“Polymerase activity … with MSA (% of control)” below) (human plasma polymerase; 3 mM destroying agent first, 1.1 mM MSA) is reported as 17%. The “Polymerase activity after second incubation with cysteamine (% of control)” value (human plasma polymerase; 3 mM destroying agent first, 1.1 mM cysteamine) was 0%, the “Polymerase activity after second incubation with cysteine (% of control)” value (human plasma polymerase; 3 mM destroying agent first, 1.1 mM cysteine) was 4% and the “Polymerase activity after second incubation with glutathione (% of control)” value (human plasma polymerase; 3 mM destroying agent first, 1.1 mM glutathione) was 12%. For the same compound, the “Polymerase activity … with DTT (% of control)” value (human plasma polymerase; 3 mM destroying agent first, 3.3 mM DTT) was 248%, the “Polymerase activity … with MSA (% of control)” value (human plasma polymerase; 3 mM destroying agent first, 3.3 mM MSA) was 19% and the “Polymerase activity after second incubation with cysteamine (% of control)” value (human plasma polymerase; 3 mM destroying agent first, 3.3 mM cysteamine) was 0%. The “Polymerase activity after second incubation with cysteine (% of control)” value (human plasma polymerase; 3 mM destroying agent first, 3.3 mM cysteine) was 14%, the “Polymerase activity after second incubation with glutathione (% of control)” value (human plasma polymerase; 3 mM destroying agent first, 3.3 mM glutathione) was 21% and the “Polymerase activity … with DTT (% of control)” value (human plasma polymerase; 3 mM destroying agent first, 10 mM DTT) was 377%. The “Polymerase activity … with MSA (% of control)” value (human plasma polymerase; 3 mM destroying agent first, 10 mM MSA) was 7.3%, the “Polymerase activity after second incubation with cysteamine (% of control)” value (human plasma polymerase; 3 mM destroying agent first, 10 mM cysteamine) was 2% and the “Polymerase activity after second incubation with cysteine (% of control)” value (human plasma polymerase; 3 mM destroying agent first, 10 mM cysteine) was 37%. For the same compound, the “Polymerase activity after second incubation with glutathione (% of control)” value (human plasma polymerase; 3 mM destroying agent first, 10 mM glutathione) was 37%, the “Polymerase activity … with DTT (% of control)” value (human plasma polymerase; 3 mM destroying agent first, 30 mM DTT) was 448% and the “Polymerase activity … with MSA (% of control)” value (human plasma polymerase; 3 mM destroying agent first, 30 mM MSA) was 3.4%. The “Polymerase activity after second incubation with cysteamine (% of control)” value (human plasma polymerase; 3 mM destroying agent first, 30 mM cysteamine) was 1%, the “Polymerase activity after second incubation with cysteine (% of control)” value (human plasma polymerase; 3 mM destroying agent first, 30 mM cysteine) was 68% and the “Polymerase activity after second incubation with glutathione (% of control)” value (human plasma polymerase; 3 mM destroying agent first, 30 mM glutathione) was 7%. The “Polymerase activity after second incubation with water (% of control)” value (human plasma polymerase; 3 mM destroying agent first, water in second incubation) was 0%, the “Concentration that totally eliminated the human plasma RT activity” value (human plasma RT) was > 3 mM and the “Sensitivity of enzyme to thimerosal treatment” value (from here on “Sensitivity of enzyme”) [1] was “totally resistant”. The “Sensitivity of enzyme” value (FIV RT) was “most sensitive”, the “Sensitivity of enzyme” value [2] was “most sensitive” and the “Sensitivity of enzyme” value [3] was “totally resistant”.
